{
  "source": "patent US20190170731A1",
  "about": "“METHOD TO MEASURE RELATIVE UTILIZATION OF AEROBIC GLYCOLYSIS BY POSITIONAL ISOTOPIC DISCRIMINATION” (priority 2016, published 2019)",
  "format_in_all_cases": "cell-based",
  "key": {"MDA-MB-231 cells": {"system": "MDA-MB-231 cells", "test": "[1-13C]glucose labeling and LC-MS measurement of relative glycolysis rate", "conditions": "10 μM KU-55933, MDA-MB-231 cells, 10 mM D-[1-13C]-glucose; samples at 1, 3 and 6 hours of labeling (as well as 9 hours, p<0.05)", "procedure": "FIGS. 7A-B. A) Sub-confluent MDA-MB-231 cells were serum-starved overnight. Cells were washed with PBS and were then pre-treated with 10 μM KU-55933 (Halaby et al., 2008) for 30 minutes in the glucose- and serum-free medium. Fluorescently-tagged 2-NBDG (30 μg/ml) was then added for 30 minutes. Cells were treated with 100 nM insulin for another 45 minutes. Glucose Uptake was then measured following the manufacturer's instructions (Cayman Chemical). B) MDA-MB-231 cells were cultured in DMEM containing 10% FBS. After reaching […] confluent, cells were serum-starved overnight. Cells were then washed with PBS and incubated in serum- and glucose/pyruvate-free DMEM for 90 minutes. The labeling was initiated after replacing the medium with fresh serum- and glucose/pyruvate-free DMEM supplemented with 10 mM D-[1-^13C]-glucose ±10 μM KU-55933. […] 40 μL of medium was taken and diluted with 160 μL of methanol to precipitate the proteins. For LC-MS analysis, 2 μL of the supernatant were injected and analyzed with the Q-Exactive mass spec. The bar graph represents the average relative glycolysis rate ±SEM from 3 individual experiments (*p<0.05). […] These breast cancer cells were grown in DMEM supplemented with antibiotics and 10% fetal bovine serum. […] The relative rate of glycolysis for each cancer cell line was measured by the incorporation of [1-^13C]glucose into [3-^13C]lactate. […]"}, "MDA-MB-231": {"system": "MDA-MB-231", "test": "2-NBDG glucose uptake assay", "conditions": "MDA-MB-231, 100 nM insulin for 45 minutes, 30 μg/mL 2-NBDG", "procedure": "(§1) FIG. 2. […] Sub-confluent cells were serum-starved overnight. Cells were then washed with PBS and cell culture medium was replaced with glucose- and serum-free medium. Fluorescently-tagged 2-NBDG (Cayman Chemical) was then added at a concentration of 30 μg/mL for 30 minutes. After addition of 2-NBDG, cells were treated with 100 nM insulin for another 45 minutes. Glucose uptake was then measured as described hereinbelow. The graph represents the averages of 2-NBDG glucose uptake ±SEM from 3 individual experiments (p<0.05).\n(§2) Glucose uptake was analyzed using a 2-NBDG (2-deoxy-2-[(7-nitro-2,1,3-benzoxadiazol-4-yl)amino]-D-glucose, a fluorescently labeled 2-deoxyglucose) glucose uptake kit from Cayman Chemical. Briefly, cells were plated at 200,000 cells/well in a 24-well plate and allowed to grow to sub-confluency. Cells were then serum starved overnight. The next morning, cells were incubated in serum- and glucose-free medium for 30 minutes. Cells were then incubated with 30 μg/mL 2-NBDG for another 30 minutes. After incubation, cells were treated with 100 nM insulin for 45 minutes. Cells were then transferred to a clear-bottom black 96 cell plate. The plate was subjected to centrifugation at 400×g for 5 minutes. […] Signal intensity was measured with a Synergy 2 (BioTek) microplate reader at excitation/emission=485/535 nm."}, "MDA-MB-453": {"system": "MDA-MB-453", "test": "2-NBDG glucose uptake assay", "conditions": "MDA-MB-453, 100 nM insulin for 45 minutes, 30 μg/mL 2-NBDG", "procedure": "as §1, §2"}},
  "data": [
    {"compound": "O=c1cc(-c2cccc3c2Sc2ccccc2S3)oc(N2CCOCC2)c1", "note": "[KU-55933]", "values": [
      {"measurement": "relative glycolysis rate ([1-13C]glucose to [3-13C]lactate)", "setting": "MDA-MB-231 cells", "result": "significant inhibition of glycolysis rate"}
    ]},
    {"compound": "insulin", "values": [
      {"measurement": "glucose uptake (2-NBDG) in response to insulin stimulation", "setting": "MDA-MB-231", "result": "enhanced glucose uptake"},
      {"measurement": "glucose uptake (2-NBDG) in response to insulin stimulation", "setting": "MDA-MB-453", "result": "enhanced glucose uptake"}
    ]}
  ]
}
